In series [1] the test system is MUTZ-3 cells. In words: cytotoxicity by Propidium Iodide, relative viability (Rv90). The protocol: A panel of chemicals consisting of 20 sensitizers and 20 non-sensitizers were used for cell stimulations. […] All chemicals were from Sigma-Aldrich, St. Louis, Mo., USA. Compounds were dissolved in either Dimethyl sulfoxide (DMSO) or distilled water. Prior to stimulations, the cytotoxicity of all compounds were monitored, using Propidium Iodide (PI) (BD Biosciences, San Diego, Calif.) using protocol provided by the manufacturer. The relative viability of stimulated cells was calculated as
For toxic compounds, the concentration yielding 90% relative viability (Rv90) was used. For untoxic compounds, a concentration of 500 μM was used when possible. For non-toxic compounds that were insoluble at 500 μM in medium, the highest soluble concentration was used. For compounds dissolved in DMSO, the in-well concentration was 0.1% DMSO.

The subject of series [2] is CD86. In words: CD86 cell surface expression by flow cytometry after chemical stimulation. Type of series: cell-based, human. The conditions noted are these: 24 h stimulation, frequency of CD86-positive cells, paired Student's t test. As to the method: Cell surface expression levels of CD86 were monitored after stimulation with chemicals for 24 h. FIG. 2A). Chemical-induced upregulation of CD86, in terms of changes in frequency of positive cells, were determined by flow cytometry, as exemplified by the comparison of 2-aminophenol-stimulated cells (right dotplot) and unstimulated controls (left dotplot). Results are shown from one representative experiment out of three. Gates were set to exclude debris and dead cells, and quadrants were established by comparing with relevant isotype controls. FIG. 2B) Compilation of frequencies of CD86-positive cells after 24 h of stimulation. Statistical analysis was performed using paired Student's t test. *p<0.05, # p<0.01. NA, not analysed.
CD86 is the most extensively studied biomarker for sensitization to date, in cell-systems such as monocyte derived dendritic cells (MoDCs) or dendritic cell-like human cell lines and their progenitors, such as THP-1, U-937 and KG-1. Thus, as a reference, cell surface expression of CD86 was measured with flow cytometry after 24h stimulation with 20 sensitizers and 20 non-sensitizers, as well as with vehicle controls (Table 1). […]. […] Consequently, CD86 cannot classify skin sensitizers, using a cell based system such as MUTZ-3.
The human myeloid leukaemia-derived cell line MUTZ-3 (DSMZ, Braunschweig, Germany) was maintained in a-MEM (Thermo Scientific Hyclone, Logan, Utah) supplemented with 20% (volume/volume) fetal calf serum (Invitrogen, Carlsbad, Calif.) and 40 ng/ml rhGM-CSF (Bayer HealthCare Pharmaceuticals, Seattle, Wash.), as described. Prior to each experiment, the cells were immunophenotyped using flow cytometry as a quality control. Cells were seeded in 6-well plates at 200.000 cells/ml. Stock solutions of each compound was prepared in either DMSO or distilled water, and were subsequently diluted so the in-well concentrations corresponded to the Rv90 value, and in-well concentrations of DMSO were 0.1%. Cells were incubated for 24h at 37° C. and 5% CO2. Thereafter, cells were harvested and analysed with flow cytometry. In parallel, harvested cells were lysed in TRIzol reagent (Invitrogen) and stored at −20° C. until RNA extraction. Stimulations with chemicals were performed in three individual experiments, so that triplicates samples were obtained.
All cell surface staining and washing steps was performed in PBS containing 1% BSA (w/v). Cells were incubated with specific mouse mAbs for 15 min at 4° C. The following mAbs were used for flow cytometry: FITC-conjugated CD1a (DakoCytomation, Glostrup, Denmark), CD34, CD86, and HLA-DR (BD Biosciences), PE-conjugated CD14 (DakoCytomation), CD54 and CD80 (BD Biosciences). Mouse IgG1, conjugated to FITC or PE were used as isotype controls and PI was used to assess cell viability (BD Biosciences). FACSDiva software was used for data acquisition with FACSCanto II instrument (BD Bioscience). 10,000 events were acquired and gates were set based on light scatter properties to exclude debris and nonviable cells. Further data analysis was performed using FCS Express V3 (De Novo Software, Los Angeles, Calif.).
(In flow cytometry, cells or beads pass a laser one at a time.)

The subject of series [3] is draining lymph nodes of mice. Conditions: cited from earlier work.
The subject of series [4] is MUTZ-3 cells. Briefly: transcriptional profiling (Affymetrix Human Gene 1.0 ST arrays) with PCA of chemically stimulated cells. Type of series: cell-based.
Experimental: The genomic expression arrays were used to test 20 sensitizers and 20 non-sensitizers, in triplicates, and vehicle controls such as DMSO and distilled water, the latter in twelve replicates.
The human myeloid leukaemia-derived cell line MUTZ-3 (DSMZ, Braunschweig, Germany) was maintained in a-MEM (Thermo Scientific Hyclone, Logan, Utah) supplemented with 20% (volume/volume) fetal calf serum (Invitrogen, Carlsbad, Calif.) and 40 ng/ml rhGM-CSF (Bayer HealthCare Pharmaceuticals, Seattle, Wash.), as described [10]. Prior to each experiment, the cells were immunophenotyped using flow cytometry as a quality control. Cells were seeded in 6-well plates at 200.000 cells/ml. Stock solutions of each compound was prepared in either DMSO or distilled water, and were subsequently diluted so the in-well concentrations corresponded to the Rv90 value, and in-well concentrations of DMSO were 0.1%. Cells were incubated for 24h at 37° C. and 5% CO2. Thereafter, cells were harvested and analysed with flow cytometry. In parallel, harvested cells were lysed in TRIzol reagent (Invitrogen) and stored at −20° C. until RNA extraction. Stimulations with chemicals were performed in three individual experiments, so that triplicates samples were obtained.
RNA isolation and gene chip hybridization was performed as described [22]. […] The preparation of labeled sense DNA was performed according to Affymetrix GeneChip Whole Transcript (WT) Sense Target Labeling Assay (100 ng Total RNA Labeling Protocol) using the recommended kits and controls (Affymetrix, Santa Clara, Calif.). Hybridization, washing and scanning of the Human Gene 1.0 ST Arrays were performed according to the manufacturer's protocol (Affymetrix).
The microarray data were normalised and quality checked with the RMA algorithm, using Affymetrix Expression Console (Affymetrix).
Series [5] in a line: Max solubility in medium. The conditions noted are these: vehicle DMSO or water.
Series [6] has as its system human. The conditions noted are these: in vivo; cited from earlier work.
Series [7] concerns human. The conditions noted are these: in vivo; cited from earlier work. This is another data set of the same source.
The nature of series [8]: physchem. Conditions: plasma or biological fluid, kinetic from dmso stock.
Setting [9] is: concentration yielding 90% relative viability, PI staining.
The mark [10] stands for this setting: sensitizing potency category based on murine LLNA classification.
The mark [11] stands for this setting: 24 h stimulation, one or more replicate.

In brackets after ≈: the same amount, converted by molar mass. Read-outs that look alike come from different tables or passages of the source.

Broadly, the solubility is the dissolved amount per volume that the medium holds. Low values mean a poorly soluble substance, high ones a readily soluble substance.

For `O=[N+]([O-])c1ccc(Cl)c([N+](=O)[O-])c1` [2,4-Dinitrochlorobenzene], in series [1] (setting [9]), the “Rv90” value stood at 4 µM. For the same molecule, in series [2], the “CD86 cell surface expression” value was “significantly up-regulated”. For the same molecule, the Potency result in series [3] (setting [10]) was “Extreme [15]”. Also, the “PCA grouping, 1137 genes (comparing the different stimulations), FIG. 3D” value in series [4] (24 h stimulation, triplicates) is recorded as “replicates that group together, separate from the negative group”.

Turning to `Nc1ccccc1O` [2-Aminophenol], the “Rv90” value in series [1] (setting [9]) came out at 100 µM. The “CD86 cell surface expression” value in series [2] was “significantly up-regulated”. Moreover, in series [3] (setting [10]), the Potency entry was “Strong [27]”. Also, in series [4], the “PCA grouping, 1137 genes (comparing the different stimulations), FIG. 3D” value is “replicates that group together, separate from the negative group”.

As for `C=CC(=O)OCCO` [2-Hydroxyethyl acrylate], the “Rv90” value in series [1] (setting [9]) is 100 µM. The “CD86 cell surface expression” value in series [2] is “significantly up-regulated”. In addition, the “PCA grouping, 1137 genes (comparing the different stimulations), FIG. 3D” value in series [4] (24 h stimulation, triplicates) is “replicates that group together, separate from the negative group”.

For the molecule `Sc1nc2ccccc2s1` [2-Mercaptobenzothiazole], the “CD86 cell surface expression” value in series [2] is on record as “significantly up-regulated”. Also, in series [3] (setting [10]), the Potency result was “Moderate [27]”. Further, in series [4] (24 h stimulation, triplicates), the “PCA grouping, 1137 genes (comparing the different stimulations), FIG. 3D” value is reported as “replicates that group together, separate from the negative group”.

For the molecule `Nc1ccc(N)c([N+](=O)[O-])c1` [2-nitro-1,4-Phenylendiamine], the “CD86 cell surface expression” value in series [2] is listed as “significantly up-regulated”. The “PCA grouping, 1137 genes (comparing the different stimulations), FIG. 3D” value in series [4] (24 h stimulation, triplicates) was “replicates that group together, separate from the negative group”.

Take `O=Cc1ccccc1` [Benzaldehyde]: the “Max solubility” value in series [5] worked out at 250 µM.

As for `O=CC=Cc1ccccc1` [Cinnamaldehyde], the “Rv90” value in series [1] (human) was found to be 120 µM. Moreover, in series [2], the “CD86 cell surface expression” value is “significantly up-regulated”. For the same molecule, the HPTA entry in series [6] is given as “+”. Also, the HMT entry in series [7] is recorded as “+”.

For `OC/C=C/c1ccccc1` [Cinnamic alcohol], the Potency entry in series [3] (setting [10]) was “Weak [27]”. Besides, the “PCA grouping, 1137 genes (comparing the different stimulations), FIG. 3D” value in series [4] (24 h stimulation, triplicates) is “replicates that group together, separate from the negative group”.

With `NCCN` [Ethylendiamine], the Potency result in series [3] (setting [10]) was “Moderate [14]”. In addition, the “PCA grouping, 1010 transcripts (sensitizing vs. non-sensitizing ANOVA), FIG. 3B” value in series [4] (setting [11]) is on record as “group together with the control group”.

As to `C=CCc1ccc(O)c(OC)c1` [Eugenol], the “Rv90” value in series [1] (human) is 300 µM. Further, the Potency result in series [3] (setting [10]) is “Weak [28]”. The “PCA grouping, 1010 transcripts (sensitizing vs. non-sensitizing ANOVA), FIG. 3B” value in series [4] (setting [11]) is reported as “group together with the control group”.

Turning to `C=O` [Formaldehyde], in series [1] (human), the “Rv90” value was 80 µM. Moreover, the Potency entry in series [3] (mouse, in vivo) is “Strong [15]”.

Regarding `O=CC=O` [Glyoxal], in series [1] (setting [9]), the “Rv90” value worked out at 300 µM. In addition, the Potency result in series [3] (mouse, in vivo) is “Moderate [27]”. The “PCA grouping, 1010 transcripts (sensitizing vs. non-sensitizing ANOVA), FIG. 3B” value in series [4] (setting [11]) is reported as “group together with the control group”.

With `CCCCCCC(C=O)=Cc1ccccc1` [Hexylcinnamic aldehyde], in series [3] (setting [10]), the Potency entry was “Moderate [15]”. In series [4] (setting [11]), the “PCA grouping, 1010 transcripts (sensitizing vs. non-sensitizing ANOVA), FIG. 3B” value is given as “group together with the control group”.

On to `CC=Cc1ccc(O)c(OC)c1` [Isoeugenol], for which, in series [1] (human), the “Rv90” value was determined as 300 µM. In series [3] (setting [10]), the Potency entry is “Moderate [28]”. Further, in series [4] (setting [11]), the “PCA grouping, 1010 transcripts (sensitizing vs. non-sensitizing ANOVA), FIG. 3B” value is reported as “group together with the control group”.

Take `CCCCCCCC(=O)O` [Octanoic acid]: the “PCA grouping, 1010 transcripts (sensitizing vs. non-sensitizing ANOVA), FIG. 3B” value in series [4] (setting [11]) is given as “tend to group with the sensitizers”.

Turning to `CCO/C=C1\N=C(c2ccccc2)OC1=O` [Oxazolone], the Potency result in series [3] (mouse, in vivo) is “Extreme [15]”.

For `CC1(C)S[C@@H]2[C@H](NC(=O)Cc3ccccc3)C(=O)N2[C@H]1C(=O)O` [Penicillin G], the Potency result in series [3] (setting [10]) was “Weak [28]”. For the same molecule, the “PCA grouping, 1010 transcripts (sensitizing vs. non-sensitizing ANOVA), FIG. 3B” value in series [4] (setting [11]) is “group together with the control group”.

As for `Oc1ccccc1` [Phenol], in series [4], the “PCA grouping, 1010 transcripts (sensitizing vs. non-sensitizing ANOVA), FIG. 3B” value is listed as “tend to group with the sensitizers”.

Take `[K+].[K+].[O]=[Cr](=[O])([O-])[O][Cr](=[O])(=[O])[O-]` [Potassium dichromate]: the Potency result in series [3] (setting [10]) was “Extreme [14]”. Further, the “PCA grouping, 1137 genes (comparing the different stimulations), FIG. 3D” value in series [4] is “discrete profile”.

Regarding `Oc1cccc(O)c1` [Resorcinol], in series [2], the “CD86 cell surface expression” value is on record as “significantly up-regulated”. Moreover, the Potency result in series [3] (setting [10]) was “Moderate [29]”. Besides, in series [4] (setting [11]), the “PCA grouping, 1010 transcripts (sensitizing vs. non-sensitizing ANOVA), FIG. 3B” value is listed as “group together with the control group”. The “PCA grouping, 1137 genes (comparing the different stimulations), FIG. 3D” value in series [4] (24 h stimulation, triplicates) is on record as “replicates that group together, separate from the negative group”.

Take `CCCCCCCCCCCCOS(=O)(=O)[O-].[Na+]` [Sodium dodecyl sulphate]: the “Rv90” value in series [1] (setting [9]) was determined as 200 µM.

Take `CCCCCCCC/C=C\CCCCCCCC(=O)OCCOCC(OCCO)C1OCC(OCCO)C1OCCO` (centres unmarked) [Tween 80]: the “PCA grouping, 1010 transcripts (sensitizing vs. non-sensitizing ANOVA), FIG. 3B” value in series [4] (setting [11]) was “tend to group with the sensitizers”.

Regarding `Nc1ccc(N)cc1` [p-Phenylendiamine], the “Rv90” value in series [1] (setting [9]) was 75 µM. In series [2], the “CD86 cell surface expression” value is “significantly up-regulated”. Further, in series [3] (setting [10]), the Potency result is “Strong [28]”. Further, in series [8], the solubility is 566 µM (≈ 61.2 µg/mL). Further, in series [4] (24 h stimulation, triplicates), the “PCA grouping, 1137 genes (comparing the different stimulations), FIG. 3D” value is “replicates that group together, separate from the negative group”.

Source of the values: US20170218449A1, “ANALYTICAL METHODS AND ARRAYS FOR USE IN THE SAME” (SENZAGEN AB, priority 2010, published 2017).
